These results are taken from paper PMC9295122, “Sialic Acid Derivatives Inhibit SiaT Transporters and Delay Bacterial Growth” (ACS Chemical Biology, 2022).

The target in one experiment is T1, PmSiaT (Proteus mirabilis, UniProt B4EZY7).
T1 construct: made in house
T1 sequence (B4EZY7 1-496): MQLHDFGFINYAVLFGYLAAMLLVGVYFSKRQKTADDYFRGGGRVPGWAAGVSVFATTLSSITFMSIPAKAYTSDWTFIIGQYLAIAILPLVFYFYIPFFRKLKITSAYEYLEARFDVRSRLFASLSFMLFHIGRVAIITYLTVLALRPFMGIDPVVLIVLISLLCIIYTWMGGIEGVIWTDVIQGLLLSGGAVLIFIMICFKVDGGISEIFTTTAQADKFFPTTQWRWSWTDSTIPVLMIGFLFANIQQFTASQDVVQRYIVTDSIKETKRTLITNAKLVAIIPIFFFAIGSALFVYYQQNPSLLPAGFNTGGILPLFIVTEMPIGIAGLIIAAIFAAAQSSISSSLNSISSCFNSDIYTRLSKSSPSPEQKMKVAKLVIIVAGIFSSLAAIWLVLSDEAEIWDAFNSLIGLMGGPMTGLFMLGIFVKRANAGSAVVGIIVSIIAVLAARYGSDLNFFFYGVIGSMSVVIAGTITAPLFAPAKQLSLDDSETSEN
As to the kind of experiment: nanoDSF thermal shift assay, PmSiaT. Conditions: for Average 1 / Average 2 / Average 3 / Replicate 1 / Replicate 2 / Replicate 3: PmSiaT Tm; for Average 1: average of experiment 1; for Average 2: average of experiment 2; for Average 3: average of experiment 3; for Replicate 1: experiment 1, second capillary; for Replicate 1 / Replicate 2 / Replicate 3 / Tm 1 / Tm2 / Tm 3 / Tm average overall / ΔTm at 1250 µM: 1.25 mM; for Replicate 2: experiment 2, second capillary; for Replicate 3: experiment 3, second capillary; for Tm 1: experiment 1, first capillary; for Tm2: experiment 2, first capillary; for Tm 3: experiment 3, first capillary; for Tm average overall / ΔTm at 1250 µM: three experiments; for ΔTm at 1250 µM: vs Neu5Ac, read-out: ΔTm average overall. The format is binding. The protocol: (§1) Nano-differential scanning fluorimetry (nanoDSF) is a high-throughput method that relies on the thermal stabilization of the folded protein state by a bound ligand.[33]
(§2) The melting points of protein–inhibitor complexes were measured on a Prometheus NT.48 instrument from NanoTemper Technologies. Solutions containing the protein at 2 μM in phosphate buffered saline with 0.0174% (w/v) dodecylmaltoside (DDM) and the ligand at 1.25 mM were loaded onto standard capillaries by NanoTemper. The temperature was increased from 25 to 95 °C at a ramp rate of 1 °C/min. The fluorescence was recorded at 330 and 350 nm and as a ratio of the two wavelengths.
(§3) The intensity ratio and its first derivative were calculated using manufacturer’s software (PR.ThermControl, version 2.1.2).
(§4) The melting temperatures have been measured in 3 separate experiments. In each experiment, two capillaries were included per compound, having therefore 2 technical replicates per experiment. In the table all data is presented. Tm1 and Replicate 1 represent the two replicates of the first experiment. Average 1 is the average between Tm 1 and Replicate 1. ΔTm 1 is the thermal shift when compared to the Tm of Neu5Ac. This is calculated from Average 1. The ΔTm presented in the article are the ΔTm average overall, which represent the overall average of the averages from the three experiments. The standard deviation (SD) is calculated from the […]

For another experiment, the target named is SaSiaT (Staphylococcus aureus, UniProt A0A0H2XJ46). As to the kind of experiment: nanoDSF thermal shift assay, SaSiaT. It is filed as binding. Conditions: for Average 1 / Average 2 / Average 3 / Replicate 1 / Replicate 2 / Replicate 3: SaSiaT Tm; for Average 1: average of experiment 1; for Average 2: average of experiment 2; for Average 3: average of experiment 3; for Replicate 1: experiment 1, second capillary; for Replicate 1 / Replicate 2 / Replicate 3 / Tm 1 / Tm2 / Tm 3 / Overall average (Tm): 1.25 mM; for Replicate 2: experiment 2, second capillary; for Replicate 3: experiment 3, second capillary; for Tm 1: experiment 1, first capillary; for Tm2: experiment 2, first capillary; for Tm 3: experiment 3, first capillary; for Overall average (Tm): three experiments. How it is done: as §1, §2, §3, §4
Chain of SaSiaT (A0A0H2XJ46 entry or part of it): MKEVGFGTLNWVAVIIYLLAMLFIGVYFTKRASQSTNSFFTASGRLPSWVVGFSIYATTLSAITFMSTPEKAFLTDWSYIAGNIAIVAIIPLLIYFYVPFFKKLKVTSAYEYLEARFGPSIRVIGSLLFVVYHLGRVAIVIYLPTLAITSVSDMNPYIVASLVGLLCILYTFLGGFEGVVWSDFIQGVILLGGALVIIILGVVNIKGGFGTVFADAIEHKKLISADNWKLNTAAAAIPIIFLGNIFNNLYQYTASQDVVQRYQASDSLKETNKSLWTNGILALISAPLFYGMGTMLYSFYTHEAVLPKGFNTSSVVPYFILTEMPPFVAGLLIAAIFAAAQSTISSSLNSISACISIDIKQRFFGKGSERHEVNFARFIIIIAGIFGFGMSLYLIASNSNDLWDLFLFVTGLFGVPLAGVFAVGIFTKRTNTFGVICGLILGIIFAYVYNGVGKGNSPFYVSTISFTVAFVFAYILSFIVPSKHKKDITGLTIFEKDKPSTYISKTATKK

[1] abbreviates: PmSiaT, experiment 1, vs Neu5Ac, read-out: ΔTm 1.
Where [2] appears, read: PmSiaT, experiment 2, vs Neu5Ac, read-out: ΔTm 2.
The mark [3] stands for this setting: PmSiaT, experiment 3, vs Neu5Ac, read-out: ΔTm 3.

Read-outs that look alike come from different tables or passages of the source.

Take `CCSCC(O)C(O)C1OC(O)(C(=O)O)CC(O)C1NC(C)=O` (centres unmarked) [Compound 8b]: on PmSiaT, the “Average 1” value was 45.9 °C, the “Average 2” value was found to be 45.9 °C, the “Average 3” value amounted to 46.1 °C and the “Replicate 1” value was 45.9 °C. Besides, on PmSiaT, the “Replicate 2” value worked out at 46.0 °C and the “Replicate 3” value amounted to 46.1 °C. At PmSiaT (PmSiaT), the “Tm 1” value was 45.8 °C, the Tm2 turned out to be 45.9 °C, the “Tm 3” value came out at 46.2 °C and the Tm average overall amounted to 46.0 °C. Moreover, at PmSiaT (PmSiaT), the thermal shift (ΔTm) at 1250 µM is -3.2 °C. At PmSiaT (setting [1]), the shift in melting temperature (ΔTm) is -3.1 °C. At PmSiaT (setting [2]), the ΔTm is -3.3 °C. For the same compound, the ΔTm at PmSiaT (setting [3]) was -3.2 °C. Also, at SaSiaT, the “Average 1” value stood at 49.9 °C, the “Average 2” value was 48.6 °C, the “Average 3” value turned out to be 49.8 °C and the “Replicate 1” value came out at 49.9 °C. Also, on SaSiaT, the “Replicate 2” value amounted to 48.7 °C and the “Replicate 3” value is 49.6 °C. Besides, on SaSiaT (SaSiaT), the “Tm 1” value came to 49.9 °C, the “Tm2” value is 48.5 °C, the “Tm 3” value came to 50.0 °C and the “Overall average (Tm)” value was found to be 49.4 °C.

With `CC(=O)NC1C(O)CC(O)(C(=O)O)OC1C(O)C(O)CCl` (centres unmarked) [Compound 8c], at PmSiaT, the “Average 1” value was 47.7 °C, the “Average 2” value turned out to be 47.9 °C, the “Average 3” value was found to be 48.0 °C and the “Replicate 1” value was 47.8 °C. In addition, on PmSiaT, the “Replicate 2” value is 47.9 °C and the “Replicate 3” value was found to be 48.1 °C. In addition, at PmSiaT (PmSiaT), the “Tm 1” value was 47.6 °C, the Tm2 was determined as 47.9 °C, the “Tm 3” value came to 47.9 °C and the Tm average overall was determined as 47.9 °C. For the same compound, the ΔTm at 1250 µM on PmSiaT (PmSiaT) was -1.3 °C. The ΔTm at PmSiaT (setting [1]) is -1.3 °C. Further, the shift in melting temperature (ΔTm) at PmSiaT (setting [2]) is -1.3 °C. At PmSiaT (setting [3]), the ΔTm was -1.3 °C. At SaSiaT, the “Average 1” value stood at 48.9 °C, the “Average 2” value was 49.6 °C, the “Average 3” value stood at 49.7 °C and the “Replicate 1” value was determined as 48.9 °C. Further, on SaSiaT, the “Replicate 2” value is 49.6 °C and the “Replicate 3” value turned out to be 49.6 °C. Moreover, on SaSiaT (SaSiaT), the “Tm 1” value was determined as 48.9 °C, the “Tm2” value is 49.5 °C, the “Tm 3” value was determined as 49.8 °C and the “Overall average (Tm)” value came to 49.4 °C.

With `CC(=O)NC1C(O)CC(O)(C(=O)O)OC1C(O)C(O)CBr` (centres unmarked) [Compound 8d], on PmSiaT, the “Average 1” value was determined as 47.3 °C, the “Average 2” value was 47.2 °C, the “Average 3” value is 47.2 °C and the “Replicate 1” value worked out at 47.4 °C. Moreover, on PmSiaT, the “Replicate 2” value is 47.1 °C and the “Replicate 3” value is 47.0 °C. Moreover, on PmSiaT (PmSiaT), the “Tm 1” value worked out at 47.2 °C, the Tm2 was 47.3 °C, the “Tm 3” value came out at 47.4 °C and the Tm average overall is 47.2 °C. In addition, the ΔTm at 1250 µM on PmSiaT (PmSiaT) was -1.9 °C. Moreover, the ΔTm at PmSiaT (setting [1]) was -1.7 °C. Further, the ΔTm at PmSiaT (setting [2]) is -2 °C. In addition, the ΔTm at PmSiaT (setting [3]) is -2.1 °C. Moreover, on SaSiaT, the “Average 1” value was 49.9 °C, the “Average 2” value is 49.9 °C, the “Average 3” value was 51.8 °C and the “Replicate 1” value was 49.8 °C. In addition, at SaSiaT, the “Replicate 2” value was determined as 49.9 °C and the “Replicate 3” value was 52.8 °C. Also, at SaSiaT (SaSiaT), the “Tm 1” value is 49.9 °C, the “Tm2” value was found to be 49.9 °C, the “Tm 3” value turned out to be 50.8 °C and the “Overall average (Tm)” value amounted to 50.5 °C.

Consider `CC(=O)NC1C(O)CC(O)(C(=O)O)OC1C(O)C(O)CI` (centres unmarked) [Compound 8e], for which, at PmSiaT, the “Average 1” value was found to be 46.9 °C, the “Average 2” value is 47.2 °C, the “Average 3” value was found to be 47.3 °C and the “Replicate 1” value is 46.7 °C. Moreover, at PmSiaT, the “Replicate 2” value amounted to 47.2 °C and the “Replicate 3” value was determined as 47.2 °C. Moreover, on PmSiaT (PmSiaT), the “Tm 1” value turned out to be 47.2 °C, the Tm2 was determined as 47.3 °C, the “Tm 3” value was 47.3 °C and the Tm average overall turned out to be 47.1 °C. The ΔTm at 1250 µM at PmSiaT (PmSiaT) was -2 °C. Besides, at PmSiaT (setting [1]), the ΔTm was -2.1 °C. In addition, the shift in melting temperature (ΔTm) at PmSiaT (setting [2]) is -2 °C. For the same compound, the ΔTm at PmSiaT (setting [3]) is -2 °C. In addition, at SaSiaT, the “Average 1” value came out at 49.3 °C, the “Average 2” value stood at 49.0 °C, the “Average 3” value is 49.5 °C and the “Replicate 1” value is 49.3 °C. Also, on SaSiaT, the “Replicate 2” value came out at 48.9 °C and the “Replicate 3” value came out at 49.1 °C. Also, on SaSiaT (SaSiaT), the “Tm 1” value was determined as 49.2 °C, the “Tm2” value is 49.0 °C, the “Tm 3” value was 49.9 °C and the “Overall average (Tm)” value came to 49.3 °C.

As for `CC(=O)NC1C(O)CC(O)(C(=O)O)OC1C(O)C(C)O` (centres unmarked) [Compound 8f], at PmSiaT, the “Average 1” value stood at 46.0 °C, the “Average 2” value stood at 45.9 °C, the “Average 3” value came to 45.9 °C and the “Replicate 1” value amounted to 46.0 °C. At PmSiaT, the “Replicate 2” value was found to be 45.9 °C and the “Replicate 3” value came to 45.9 °C. Also, on PmSiaT (PmSiaT), the “Tm 1” value stood at 46.0 °C, the Tm2 worked out at 45.8 °C, the “Tm 3” value is 45.9 °C and the Tm average overall worked out at 45.9 °C. Further, the “binding / thermal stabilization in words” value on PmSiaT (PmSiaT, nanoDSF screen) is “complete loss of affinity”. In addition, on SaSiaT, the “Average 1” value was determined as 43.1 °C, the “Average 2” value was 43.0 °C, the “Average 3” value stood at 42.9 °C and the “Replicate 1” value is 42.9 °C. Besides, on SaSiaT, the “Replicate 2” value worked out at 43.1 °C and the “Replicate 3” value came out at 43.0 °C. Moreover, on SaSiaT (SaSiaT), the “Tm 1” value is 43.2 °C, the “Tm2” value was found to be 43.0 °C, the “Tm 3” value is 42.8 °C and the “Overall average (Tm)” value came out at 43.0 °C. Further, the “binding / thermal stabilization in words” value at SaSiaT (SaSiaT, nanoDSF screen) is listed as “complete loss of affinity”.

With `CC(=O)NC1C(O)CC(O)(C(=O)O)OC1C(O)C(O)CN=[N+]=[N-]` (centres unmarked) [Compound 8g], on PmSiaT, the “Average 1” value is 46.0 °C, the “Average 2” value is 46.1 °C, the “Average 3” value amounted to 46.0 °C and the “Replicate 1” value is 45.9 °C. On PmSiaT, the “Replicate 2” value worked out at 46.2 °C and the “Replicate 3” value stood at 46.1 °C. On PmSiaT (PmSiaT), the “Tm 1” value turned out to be 46.0 °C, the Tm2 was 46.0 °C, the “Tm 3” value came to 45.9 °C and the Tm average overall stood at 46.0 °C. Besides, on SaSiaT, the “Average 1” value was determined as 48.7 °C, the “Average 2” value stood at 47.4 °C, the “Average 3” value was 48.5 °C and the “Replicate 1” value was found to be 42.7 °C. In addition, on SaSiaT, the “Replicate 2” value was found to be 47.4 °C and the “Replicate 3” value is 48.3 °C. Also, at SaSiaT (SaSiaT), the “Tm2” value came out at 47.4 °C, the “Tm 3” value is 48.6 °C and the “Overall average (Tm)” value stood at 48.2 °C.
